Here are results for 13 compounds from ChEMBL document CHEMBL1909046, “DrugMatrix in vitro pharmacology data”.

Experiment [1] deals with Sodium-dependent dopamine transporter (Homo sapiens, UniProt Q01959). Description: DRUGMATRIX: Dopamine Transporter radioligand binding (ligand: [125I] RTI-55). The conditions noted are these: Not Active = under 50% inhibition at 10 µM. It counts as cell membranes, CHO-K1, Membrane.
The target in experiment [2] is T1, Vasoactive intestinal polypeptide receptor 1 (Homo sapiens, UniProt P32241). Note: in other assays of this panel Not Active means under 50% inhibition at 10 µM.
T1 sequence (P32241 whole entry): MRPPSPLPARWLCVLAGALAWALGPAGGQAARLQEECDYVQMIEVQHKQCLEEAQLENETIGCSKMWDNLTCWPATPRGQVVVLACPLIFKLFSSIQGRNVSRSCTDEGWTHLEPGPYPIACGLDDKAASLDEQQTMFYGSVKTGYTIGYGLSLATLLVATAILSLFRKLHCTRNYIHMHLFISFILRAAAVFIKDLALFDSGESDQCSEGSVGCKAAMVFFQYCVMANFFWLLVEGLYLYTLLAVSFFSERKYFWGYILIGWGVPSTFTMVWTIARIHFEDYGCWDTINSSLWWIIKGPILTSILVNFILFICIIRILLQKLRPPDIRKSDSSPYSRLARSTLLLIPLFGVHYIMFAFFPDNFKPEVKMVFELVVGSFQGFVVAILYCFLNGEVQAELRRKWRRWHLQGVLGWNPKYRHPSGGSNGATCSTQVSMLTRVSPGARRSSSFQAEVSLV
It counts as cell membranes, Membrane. The conditions noted are these: ht-29.

Experiment [3] deals with T2, 3-hydroxy-3-methylglutaryl-coenzyme A reductase (Homo sapiens, UniProt P04035).
T2 sequence (P04035 whole entry): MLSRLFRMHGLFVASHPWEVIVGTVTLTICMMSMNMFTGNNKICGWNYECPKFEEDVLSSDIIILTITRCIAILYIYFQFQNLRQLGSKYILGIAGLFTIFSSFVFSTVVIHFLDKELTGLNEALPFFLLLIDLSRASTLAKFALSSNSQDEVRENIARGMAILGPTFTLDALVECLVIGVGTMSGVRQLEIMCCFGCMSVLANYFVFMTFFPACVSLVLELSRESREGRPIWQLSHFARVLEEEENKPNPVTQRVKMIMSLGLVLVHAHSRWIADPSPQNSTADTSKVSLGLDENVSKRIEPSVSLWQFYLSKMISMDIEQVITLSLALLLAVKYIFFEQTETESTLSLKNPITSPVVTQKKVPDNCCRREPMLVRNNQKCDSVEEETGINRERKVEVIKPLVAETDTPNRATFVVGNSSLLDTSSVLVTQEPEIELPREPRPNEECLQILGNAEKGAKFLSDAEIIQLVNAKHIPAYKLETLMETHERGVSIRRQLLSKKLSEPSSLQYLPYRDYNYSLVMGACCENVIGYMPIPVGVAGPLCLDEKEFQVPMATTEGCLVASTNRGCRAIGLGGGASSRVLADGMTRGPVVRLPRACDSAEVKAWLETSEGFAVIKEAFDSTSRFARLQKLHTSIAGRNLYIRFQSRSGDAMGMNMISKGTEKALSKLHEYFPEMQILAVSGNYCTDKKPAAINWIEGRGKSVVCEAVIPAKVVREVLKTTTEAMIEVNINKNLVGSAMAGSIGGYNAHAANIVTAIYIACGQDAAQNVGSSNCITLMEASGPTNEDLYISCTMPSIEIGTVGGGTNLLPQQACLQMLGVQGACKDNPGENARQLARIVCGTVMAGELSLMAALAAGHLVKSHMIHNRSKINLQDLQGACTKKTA
Set-up: species or system Escherichia coli.

Experiment [4] can be described thus: DRUGMATRIX: Atrial Natriuretic Factor (ANF) radioligand binding (ligand: [125I] ANF (rat)). Type of experiment: cell membranes, Cavia porcellus, Dunkin-Hartley, Adrenal gland, Membrane. The conditions noted are these: Not Active = under 50% inhibition at 10 µM.
Experiment [5] can be described thus: DRUGMATRIX: Glutamate, Kainate radioligand binding (ligand: [3H] Kainic acid). Type of experiment: cell membranes, Rattus norvegicus, Wistar, Brain, Membrane. The conditions noted are these: Not Active = under 50% inhibition at 10 µM.
Experiment [6] in a line: DRUGMATRIX: Potassium Channel [KATP] radioligand binding (ligand: [3H] Glyburide). Type of experiment: cell membranes, Membrane. The conditions noted are these: hit-t15; Not Active = under 50% inhibition at 10 µM.
Experiment [7] has as its target T3, Progesterone receptor (Bos taurus, UniProt Q690N0).
T3 sequence (Q690N0 whole entry): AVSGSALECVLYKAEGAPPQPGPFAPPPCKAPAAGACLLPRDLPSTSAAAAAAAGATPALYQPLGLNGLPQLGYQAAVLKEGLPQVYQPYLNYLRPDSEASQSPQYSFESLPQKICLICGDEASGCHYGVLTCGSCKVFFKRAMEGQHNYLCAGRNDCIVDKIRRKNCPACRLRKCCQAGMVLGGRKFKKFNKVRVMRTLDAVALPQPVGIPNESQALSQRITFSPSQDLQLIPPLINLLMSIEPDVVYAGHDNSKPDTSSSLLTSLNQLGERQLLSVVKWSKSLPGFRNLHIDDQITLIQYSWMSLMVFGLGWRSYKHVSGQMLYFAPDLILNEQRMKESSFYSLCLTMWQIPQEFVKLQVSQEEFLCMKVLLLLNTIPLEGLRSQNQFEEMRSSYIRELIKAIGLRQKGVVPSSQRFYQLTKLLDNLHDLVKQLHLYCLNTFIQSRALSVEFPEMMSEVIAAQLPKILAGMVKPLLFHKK
Nature of the experiment: DRUGMATRIX: Progesterone radioligand binding (ligand: [3H] R-5020). Type of experiment: tissue-based, Uterus. The conditions noted are these: Not Active = under 50% inhibition at 10 µM; for Ki: read-out: Ki.

The structures appear in SMILES notation.

Sodium-dependent dopamine transporter, sequence (Q01959 whole entry): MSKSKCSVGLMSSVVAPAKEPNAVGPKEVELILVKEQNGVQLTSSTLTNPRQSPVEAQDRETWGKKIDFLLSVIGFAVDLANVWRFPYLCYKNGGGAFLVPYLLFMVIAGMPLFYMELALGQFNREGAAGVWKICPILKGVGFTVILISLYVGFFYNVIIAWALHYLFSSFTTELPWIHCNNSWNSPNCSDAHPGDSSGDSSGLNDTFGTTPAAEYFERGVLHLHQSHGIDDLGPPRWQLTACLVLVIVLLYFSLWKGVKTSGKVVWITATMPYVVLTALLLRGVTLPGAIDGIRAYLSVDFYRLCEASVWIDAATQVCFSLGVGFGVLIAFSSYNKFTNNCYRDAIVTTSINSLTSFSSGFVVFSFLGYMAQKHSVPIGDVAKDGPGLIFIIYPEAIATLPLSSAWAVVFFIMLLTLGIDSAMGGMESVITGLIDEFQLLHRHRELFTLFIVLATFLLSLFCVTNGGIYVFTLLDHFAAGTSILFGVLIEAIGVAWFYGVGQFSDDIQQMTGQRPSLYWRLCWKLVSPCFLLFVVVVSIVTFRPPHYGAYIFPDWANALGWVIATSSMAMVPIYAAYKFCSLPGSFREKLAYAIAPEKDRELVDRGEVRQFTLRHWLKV

In general, IC50 refers to the concentration needed to halve the response being measured. Usually Ki stands for a dissociation constant, usually derived from enzyme kinetics or from competition with a known ligand. For `Nc1ccn([C@@H]2O[C@H](CO)[C@@H](O)[C@@H]2O)c(=O)n1` [CYTARABINE], the IC50 result in experiment [1] (cho-k1), in experiment [2], in experiment [3], in experiment [4], in experiment [5] and in experiment [6] was “Not Active” throughout. The IC50 result in experiment [7] is “Not Active”. Also, the Ki entry in experiment [4], in experiment [5] and in experiment [6] was “Not Active” in each case.

With `C[C@@H]1C[C@H]2[C@@H]3CCC4=CC(=O)C=C[C@]4(C)[C@@]3(F)[C@@H](O)C[C@]2(C)[C@H]1C(=O)CO` [DESOXIMETASONE], the IC50 entry in experiment [1] (cho-k1), in experiment [2], in experiment [3], in experiment [4], in experiment [5] and in experiment [6] was “Not Active” each time. Also, the IC50 in experiment [7] (read-out: IC50) amounted to 84 nM. The Ki entry in experiment [4] is “Not Active”; in experiment [5], “Not Active”; in experiment [6], “Not Active”; in experiment [7], 11 nM.

Turning to `C[C@@H]1C[C@H]2[C@@H]3CCC4=CC(=O)C=C[C@]4(C)[C@@]3(F)[C@@H](O)C[C@]2(C)[C@@]1(O)C(=O)CO` [DEXAMETHASONE], the IC50 result in experiment [1] (cho-k1), in experiment [2], in experiment [3], in experiment [4], in experiment [5] and in experiment [6] was “Not Active” each time. Further, the IC50 in experiment [7] (read-out: IC50) was 23300 nM. In addition, the Ki entry in experiment [4] was “Not Active”; in experiment [5] it was “Not Active”; in experiment [6], “Not Active”; in experiment [7], 3040 nM.

`CN(C)CC[C@@H](c1ccc(Cl)cc1)c1ccccn1` [DEXCHLORPHENIRAMINE]: the IC50 is 931 nM in experiment [1] (read-out: IC50); “Not Active” in experiment [2]; “Not Active” in experiment [3]; “Not Active” in experiment [4]; “Not Active” in experiment [5]; “Not Active” in experiment [6]. Besides, in experiment [7], the IC50 entry is given as “Not Active”. The Ki is 739 nM in experiment [1] (read-out: Ki), “Not Active” in experiment [4], “Not Active” in experiment [5] and “Not Active” in experiment [6].

`C[C@@H]1CC[C@@]2(OC1)O[C@H]1[C@@H](O)[C@H]3[C@@H]4CC[C@H]5C[C@@H](O[C@@H]6O[C@H](CO)[C@H](O[C@@H]7O[C@H](CO)C(O)[C@H](O[C@@H]8OC[C@@H](O)[C@H](O)[C@H]8O)[C@H]7O[C@@H]7O[C@H](CO)[C@H](O)[C@H](O[C@@H]8O[C@H](CO)[C@@H](O)[C@H](O)[C@H]8O)[C@H]7O)[C@H](O)[C@H]6O)[C@H](O)C[C@]5(C)[C@H]4CC[C@]3(C)[C@H]1[C@@H]2C` (some centres undefined) [DIGITONIN]: the IC50 result in experiment [1] (cho-k1), in experiment [2], in experiment [3], in experiment [4], in experiment [5] and in experiment [6] was “Not Active” in each case. Also, the IC50 result in experiment [7] is given as “Not Active”. Besides, the Ki result in experiment [4], in experiment [5] and in experiment [6] was “Not Active” each time.

Take `OC(CCCN1CCCCC1)(c1ccccc1)c1ccccc1` [DIPHENIDOL]: the IC50 entry in experiment [1] (cho-k1), in experiment [2], in experiment [3], in experiment [4], in experiment [5] and in experiment [6] was “Not Active” throughout. The IC50 entry in experiment [7] is “Not Active”. In addition, the Ki result in experiment [4], in experiment [5] and in experiment [6] was “Not Active” throughout.

Turning to `C[C@H]1O[C@@H](n2cc(F)c(=O)[nH]c2=O)[C@H](O)[C@@H]1O` [DOXIFLURIDINE], the IC50 result in experiment [1] (cho-k1), in experiment [2], in experiment [3], in experiment [4], in experiment [5] and in experiment [6] was “Not Active” each time. Further, in experiment [7], the IC50 entry is reported as “Not Active”. In addition, the Ki entry in experiment [4], in experiment [5] and in experiment [6] was “Not Active” each time.

With `Cn1c(=O)c2c(ncn2CC(O)CO)n(C)c1=O` (centres undefined) [DYPHYLLINE], the IC50 entry in experiment [1] (cho-k1), in experiment [2], in experiment [3], in experiment [4], in experiment [5] and in experiment [6] was “Not Active” throughout. The IC50 entry in experiment [7] was “Not Active”. Besides, the Ki entry in experiment [4], in experiment [5] and in experiment [6] was “Not Active” each time.

Consider `CC[C@H]1CN2CCc3cc(OC)c(OC)cc3[C@@H]2C[C@@H]1C[C@H]1NCCc2cc(OC)c(OC)cc21` [EMETINE], for which the IC50 result in experiment [1] (cho-k1), in experiment [2], in experiment [3], in experiment [4], in experiment [5] and in experiment [6] was “Not Active” throughout. Besides, the IC50 result in experiment [7] is listed as “Not Active”. The Ki entry in experiment [4], in experiment [5] and in experiment [6] was “Not Active” throughout.

With `C[C@@H](CO)NC(=O)[C@@H]1C=C2c3cccc4[nH]cc(c34)C[C@H]2N(C)C1` [ERGONOVINE], the IC50 result in experiment [1] (cho-k1), in experiment [2], in experiment [3], in experiment [4], in experiment [5] and in experiment [6] was “Not Active” throughout. Moreover, in experiment [7], the IC50 entry is given as “Not Active”. Further, the Ki entry in experiment [4], in experiment [5] and in experiment [6] was “Not Active” throughout.

Consider `COC(=O)CCc1ccc(OCC(O)CNC(C)C)cc1` (centres undefined) [ESMOLOL], for which the concentration for half-maximal inhibition (IC50) entry in experiment [1] (cho-k1), in experiment [2], in experiment [3], in experiment [4], in experiment [5] and in experiment [6] was “Not Active” in each case. Also, the IC50 result in experiment [7] is recorded as “Not Active”. Further, the Ki entry in experiment [4], in experiment [5] and in experiment [6] was “Not Active” each time.

On to `CCC1(C)CC(=O)NC1=O` (centres undefined) [ETHOSUXIMIDE], for which the IC50 entry in experiment [1] (cho-k1), in experiment [2], in experiment [3], in experiment [4], in experiment [5] and in experiment [6] was “Not Active” each time. The IC50 result in experiment [7] was “Not Active”. The Ki entry in experiment [4], in experiment [5] and in experiment [6] was “Not Active” each time.

Regarding `C#C[C@]1(OC(C)=O)CC[C@H]2[C@@H]3CCC4=C[C@@H](OC(C)=O)CC[C@@H]4[C@H]3CC[C@@]21C` [ETHYNODIOL DIACETATE], the IC50 result in experiment [1] (cho-k1), in experiment [2], in experiment [3], in experiment [4], in experiment [5] and in experiment [6] was “Not Active” throughout. The IC50 in experiment [7] (read-out: IC50) is 160 nM. Also, the Ki result was “Not Active” in experiment [4], “Not Active” in experiment [5], “Not Active” in experiment [6] and 21 nM in experiment [7].
